Experimental data published in ChEMBL document CHEMBL4000250, “Synthesis of new derivatives of 21-imidazolyl-16-dehydropregnenolone as inhibitors of 5α-reductase 2 and with cytotoxic activity in cancer cells” (Bioorg Med Chem, 2017).
Active and inactive are the calls of the source. The rule behind the calls is not given here.

Assays:
[1] = target: T1, Androgen receptor (Rattus norvegicus, UniProt P15207); assay: (§1) Displacement of [3H]-MIB from rat prostate cytosolic androgen receptor by liquid scintillation counting method
T1 sequence (P15207 whole entry): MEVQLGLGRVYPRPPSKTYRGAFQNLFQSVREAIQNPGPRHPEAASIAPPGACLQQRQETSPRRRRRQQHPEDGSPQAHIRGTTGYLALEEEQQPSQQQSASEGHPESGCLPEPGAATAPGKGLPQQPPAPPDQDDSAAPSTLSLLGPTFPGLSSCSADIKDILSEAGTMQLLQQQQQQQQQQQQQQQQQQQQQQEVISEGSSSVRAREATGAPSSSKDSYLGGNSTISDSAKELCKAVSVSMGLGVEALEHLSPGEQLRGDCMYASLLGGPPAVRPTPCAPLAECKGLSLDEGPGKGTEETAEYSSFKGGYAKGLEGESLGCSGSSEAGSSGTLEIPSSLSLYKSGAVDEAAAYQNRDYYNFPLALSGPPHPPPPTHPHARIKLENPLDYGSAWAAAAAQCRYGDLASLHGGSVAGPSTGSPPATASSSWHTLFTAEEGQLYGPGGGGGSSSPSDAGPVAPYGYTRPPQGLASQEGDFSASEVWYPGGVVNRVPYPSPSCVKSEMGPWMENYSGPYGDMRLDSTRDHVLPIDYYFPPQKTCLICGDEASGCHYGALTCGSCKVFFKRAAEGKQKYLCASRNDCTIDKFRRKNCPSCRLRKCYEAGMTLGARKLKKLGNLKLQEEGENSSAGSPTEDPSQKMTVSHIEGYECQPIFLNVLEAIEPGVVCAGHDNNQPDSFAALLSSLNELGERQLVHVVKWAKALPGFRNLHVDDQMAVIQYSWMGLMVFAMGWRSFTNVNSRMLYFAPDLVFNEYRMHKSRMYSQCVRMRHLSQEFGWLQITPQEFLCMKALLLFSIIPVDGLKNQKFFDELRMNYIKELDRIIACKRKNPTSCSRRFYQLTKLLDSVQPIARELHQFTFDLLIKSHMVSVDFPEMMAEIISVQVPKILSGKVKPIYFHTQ

[2] = target: T2, 3-oxo-5-alpha-steroid 4-dehydrogenase 2 (Homo sapiens, UniProt P31213); assay: Inhibition of human prostate 5-alpha reductase 2 assessed as decrease in conversion of testosterone to dihydrotestosterone by chromatographic method
T2 sequence (P31213 whole entry): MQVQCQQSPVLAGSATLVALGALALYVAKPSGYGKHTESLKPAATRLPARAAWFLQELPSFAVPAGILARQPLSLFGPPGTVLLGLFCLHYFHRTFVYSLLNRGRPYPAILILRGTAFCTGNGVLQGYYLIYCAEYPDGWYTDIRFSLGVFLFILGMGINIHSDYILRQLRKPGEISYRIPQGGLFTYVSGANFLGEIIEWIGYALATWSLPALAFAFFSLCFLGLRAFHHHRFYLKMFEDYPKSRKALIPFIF

[3] = test system: Syrian golden hamster; assay: Hyperplasia activity in castrated golden hamster assessed as prostate weight at 2 mg/kg, sc co-administered with testosterone for 6 days (reference value: 98 +/- 12.6 mg); assay type: functional, Mesocricetus auratus
[4] = test system: Syrian golden hamster; assay: Toxicity in castrated golden hamster at 2 mg/kg, sc co-administered with testosterone for 6 days; assay type: organism-based, Mesocricetus auratus; settings: in vivo, 144 h
[5] = test system: PC-3; assay: Cytotoxicity against human PC3 cells assessed as growth inhibition at 50 uM after 48 hrs by sulforhodamine B assay relative to control; assay type: functional; settings: for inhibition of growth at 50 µM: PC-3, 48 h, read-out: GI
[6] = target: T3, Androgen receptor (Rattus norvegicus) (UniProt P15207); assay: as §1
T3 sequence (whole entry): T1 sequence (P15207 whole entry)

[7] = target: T4, 3-oxo-5-alpha-steroid 4-dehydrogenase 1 (Rattus norvegicus, UniProt P24008); assay: Inhibition of rat liver microsomal 5-alpha reductase 1 assessed as decrease in conversion of testosterone to dihydrotestosterone by chromatographic method
T4 sequence (P24008 whole entry): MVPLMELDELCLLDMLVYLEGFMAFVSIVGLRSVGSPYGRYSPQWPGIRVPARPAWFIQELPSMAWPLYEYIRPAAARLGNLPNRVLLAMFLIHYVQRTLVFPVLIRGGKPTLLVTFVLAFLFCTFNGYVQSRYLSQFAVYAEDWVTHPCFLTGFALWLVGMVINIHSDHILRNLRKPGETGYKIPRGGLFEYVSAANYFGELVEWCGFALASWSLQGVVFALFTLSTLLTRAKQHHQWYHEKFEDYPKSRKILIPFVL

[8] = test system: Syrian golden hamster; assay: Hyperplasia activity in castrated golden hamster assessed as diameter of pigmented spot of flank organs at 2 mg/kg, sc administered for 6 days (reference value: 5.65 +/- 1.12 mm); assay type: functional, Mesocricetus auratus
[9] = test system: SK-LU-1; assay: Cytotoxicity against human SKLU1 cells assessed as growth inhibition at 50 uM after 48 hrs by sulforhodamine B assay relative to control; assay type: functional; settings: for inhibition of growth at 50 µM: SK-LU-1, 48 h, read-out: GI
[10] = test system: MCF7; assay: Cytotoxicity against human MCF7 cells assessed as growth inhibition at 50 uM after 48 hrs by sulforhodamine B assay relative to control; assay type: functional; settings: for inhibition of growth at 50 µM: MCF7, 48 h, read-out: GI
[11] = test system: Syrian golden hamster; assay: Hyperplasia activity in castrated golden hamster assessed as seminal vesicles weight at 2 mg/kg, sc co-administered with testosterone for 6 days (reference value: 200.6 +/- 55 mg); assay type: functional, Mesocricetus auratus

C[C@@H]1CC2=CC(=O)CC[C@@H]2[C@H]2CC[C@@]3(C)[C@@H](CC[C@]3(C)O)[C@@H]21 [MIBOLERONE]
IC50 [1]: 1 nM

C[C@]12CC[C@H](OC(=O)C3CCCC3)CC1=CC[C@@H]1[C@@H]2CC[C@]2(C)C(C(=O)Cn3ccnc3)=CC[C@@H]12
IC50 ([2]; read-out: IC50): 35 nM | Activity [3]: 65.1 mg | Activity [4]: Non-Toxic | growth inhibition (GI) [5]: inactive | inhibition [6]: inactive | IC50 [7]: Not Active | Activity [8]: 2 mm | growth inhibition (GI) [9]: inactive | growth inhibition (GI) [10]: inactive | Activity [11]: 143.7 mg

CCC(=O)O[C@H]1CC[C@@]2(C)C(=CC[C@@H]3[C@@H]2CC[C@]2(C)C(C(=O)Cn4ccnc4)=CC[C@@H]32)C1
IC50 [2]: Not Active | Activity [3]: 88.4 mg | Activity [4]: Non-Toxic | inhibition of growth at 50 µM [5]: 22.6% | inhibition [6]: inactive | IC50 [7]: Not Active | Activity [8]: 1.8 mm | inhibition of growth at 50 µM [9]: 16.8% | inhibition of growth at 50 µM [10]: 0% | Activity [11]: 231.7 mg

C[C@]12CC[C@H](O)CC1=CC[C@@H]1[C@@H]2CC[C@]2(C)C(C(=O)Cn3ccnc3)=CC[C@@H]12
IC50 ([2]; read-out: IC50): 119000 nM | inhibition of growth at 50 µM [5]: 96.2% | inhibition [6]: inactive | IC50 [7]: Not Active | inhibition of growth at 50 µM [9]: 74.8% | inhibition of growth at 50 µM [10]: 89.4%

CC(=O)O[C@H]1CC[C@@]2(C)C(=CC[C@@H]3[C@@H]2CC[C@]2(C)C(C(=O)Cn4ccnc4)=CC[C@@H]32)C1
IC50 ([2]; read-out: IC50): 122000 nM | Activity [3]: 85.8 mg | Activity [4]: Non-Toxic | inhibition of growth at 50 µM [5]: 79.6% | inhibition [6]: inactive | IC50 [7]: Not Active | Activity [8]: 3.06 mm | inhibition of growth at 50 µM [9]: 96.7% | inhibition of growth at 50 µM [10]: 77.9% | Activity [11]: 200.5 mg

CCCC(=O)O[C@H]1CC[C@@]2(C)C(=CC[C@@H]3[C@@H]2CC[C@]2(C)C(C(=O)Cn4ccnc4)=CC[C@@H]32)C1
IC50 [2]: Not Active | Activity [3]: 83.43 mg | Activity [4]: Non-Toxic | inhibition of growth at 50 µM [5]: 0% | inhibition [6]: inactive | IC50 [7]: Not Active | Activity [8]: 1.98 mm | inhibition of growth at 50 µM [9]: 25.2% | inhibition of growth at 50 µM [10]: 0% | Activity [11]: 217.45 mg

C[C@]12CC[C@H](OC(=O)C3CCCCC3)CC1=CC[C@@H]1[C@@H]2CC[C@]2(C)C(C(=O)Cn3ccnc3)=CC[C@@H]12
IC50 ([2]; read-out: IC50): 29.3 nM | Activity [3]: 54.3 mg | Activity [4]: Non-Toxic | growth inhibition (GI) [5]: inactive | inhibition [6]: inactive | IC50 [7]: Not Active | Activity [8]: 2.4 mm | growth inhibition (GI) [9]: inactive | growth inhibition (GI) [10]: inactive | Activity [11]: 143.68 mg

C[C@]12CC[C@H](OC(=O)C3CCCCCC3)CC1=CC[C@@H]1[C@@H]2CC[C@]2(C)C(C(=O)Cn3ccnc3)=CC[C@@H]12
IC50 [2]: Not Active | Activity [3]: 70.8 mg | Activity [4]: Non-Toxic | growth inhibition (GI) [5]: inactive | inhibition [6]: inactive | IC50 [7]: Not Active | Activity [8]: 2.8 mm | growth inhibition (GI) [9]: inactive | growth inhibition (GI) [10]: inactive | Activity [11]: 143.6 mg

CCCCC(=O)O[C@H]1CC[C@@]2(C)C(=CC[C@@H]3[C@@H]2CC[C@]2(C)C(C(=O)Cn4ccnc4)=CC[C@@H]32)C1
IC50 [2]: Not Active | Activity [3]: 80.93 mg | Activity [4]: Non-Toxic | inhibition of growth at 50 µM [5]: 23.7% | inhibition [6]: inactive | IC50 [7]: Not Active | Activity [8]: 2.94 mm | inhibition of growth at 50 µM [9]: 39.2% | inhibition of growth at 50 µM [10]: 51.3% | Activity [11]: 198.33 mg

CCCCCC(=O)O[C@H]1CC[C@@]2(C)C(=CC[C@@H]3[C@@H]2CC[C@]2(C)C(C(=O)Cn4ccnc4)=CC[C@@H]32)C1
IC50 [2]: Not Active | Activity [3]: 71.85 mg | Activity [4]: Non-Toxic | inhibition of growth at 50 µM [5]: 17.2% | inhibition [6]: inactive | IC50 [7]: Not Active | Activity [8]: 3.36 mm | inhibition of growth at 50 µM [9]: 28.5% | inhibition of growth at 50 µM [10]: 28.1% | Activity [11]: 198.33 mg

CC(=O)O[C@H]1CC[C@@]2(C)C(=CC[C@@H]3[C@@H]2CC[C@]2(C)C(C(C)=O)=CC[C@@H]32)C1
IC50 [2]: Not Active | inhibition of growth at 50 µM [5]: 21.4% | inhibition [6]: inactive | IC50 [7]: Not Active | inhibition of growth at 50 µM [9]: 12.8% | inhibition of growth at 50 µM [10]: 25.5%

C[C@]12CC[C@H](OC(=O)C3CC3)CC1=CC[C@@H]1[C@@H]2CC[C@]2(C)C(C(=O)Cn3ccnc3)=CC[C@@H]12
IC50 ([2]; read-out: IC50): 711 nM | Activity [3]: 77.1 mg | Activity [4]: Non-Toxic | growth inhibition (GI) [5]: inactive | inhibition [6]: inactive | IC50 [7]: Not Active | Activity [8]: 3.4 mm | growth inhibition (GI) [9]: inactive | growth inhibition (GI) [10]: inactive | Activity [11]: 160.9 mg

C[C@]12CC[C@H](OC(=O)C3CCC3)CC1=CC[C@@H]1[C@@H]2CC[C@]2(C)C(C(=O)Cn3ccnc3)=CC[C@@H]12
IC50 ([2]; read-out: IC50): 76.4 nM | Activity [3]: 71.3 mg | Activity [4]: Non-Toxic | growth inhibition (GI) [5]: inactive | inhibition [6]: inactive | IC50 [7]: Not Active | Activity [8]: 3 mm | growth inhibition (GI) [9]: inactive | growth inhibition (GI) [10]: inactive | Activity [11]: 145.2 mg
